From ChEMBL document CHEMBL3621097, “A step forward in the sigma enigma: a role for chirality in the sigma1 receptorligand interaction?” (Medchemcomm, 2015)
The source made the active and inactive calls. The calls are words filed in the database; no cut-off is given here.

Tests used:
[1] = Displacement of [3H]-DTG from sigma-2 receptor in Sprague-Dawley rat liver membranes after 120 mins by scintillation counting analysis; format: cell membranes, Membrane
[2] = target: Sigma non-opioid intracellular receptor 1 (Cavia porcellus, UniProt Q60492); experiment: Displacement of [3H](+)-pentazocine from sigma-1 receptor in guinea pig brain cortex after 120 mins by scintillation counting analysis
Sequence of Sigma non-opioid intracellular receptor 1 (Q60492 whole entry): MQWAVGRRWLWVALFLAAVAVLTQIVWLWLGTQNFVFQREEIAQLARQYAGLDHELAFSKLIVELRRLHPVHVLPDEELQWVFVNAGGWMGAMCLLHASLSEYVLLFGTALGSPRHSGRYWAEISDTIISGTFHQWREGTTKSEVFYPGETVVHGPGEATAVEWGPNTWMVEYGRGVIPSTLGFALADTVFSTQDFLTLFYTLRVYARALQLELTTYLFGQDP

[3] = target: Sigma non-opioid intracellular receptor 1 (Rattus norvegicus) (UniProt Q9R0C9); experiment: Agonist activity at sigma 1 receptor in rat PC12 cells assessed as potentiation of NGF-induced neurite outgrowth at 2.5 to 5 uM after 5 days by phase contrast microscopic analysis relative to NGF-treated control; format: cell-based; settings: PC-12
Sequence of Sigma non-opioid intracellular receptor 1 (Rattus norvegicus) (Q9R0C9 whole entry): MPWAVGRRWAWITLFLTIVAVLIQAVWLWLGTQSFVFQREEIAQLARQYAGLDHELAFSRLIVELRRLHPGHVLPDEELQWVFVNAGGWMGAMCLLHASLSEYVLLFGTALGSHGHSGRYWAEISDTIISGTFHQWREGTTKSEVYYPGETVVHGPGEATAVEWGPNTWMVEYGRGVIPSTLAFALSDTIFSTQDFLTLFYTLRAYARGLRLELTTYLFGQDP

[4] = target: Sigma non-opioid intracellular receptor 1 (Rattus norvegicus) (UniProt Q9R0C9); experiment: Agonist activity at sigma 1 receptor in rat PC12 cells assessed as potentiation of NGF-induced neurite outgrowth at 2.5 to 5 uM after 5 days by phase contrast microscopic analysis in presence of sigma 1 antagonist NE-100; format: cell-based; settings: PC-12
[5] = target: Sigma non-opioid intracellular receptor 1 (Rattus norvegicus) (UniProt Q9R0C9); experiment: Agonist activity at sigma 1 receptor in rat PC12 cells assessed as potentiation of NGF-induced neurite outgrowth at 2.5 to 5 uM after 5 days by phase contrast microscopic analysis; format: cell-based; settings: PC-12
[6] = Selectivity ratio of Ki for sigma-2 receptor in Sprague-Dawley rat liver membrane to Ki for sigma-1 receptor in guinea pig brain cortex; format: cell membranes

Ki [1] | Ki [2] | Activity [3] | Activity [4] | Activity [5] | Ratio Ki [6] | Compound
98 nM | 1.9 nM | – | – | – | – | C[C@@H](CCN1CCCCC1)c1ccc(-c2ccccc2)cc1
45 nM | 1.8 nM | – | – | – | – | C[C@H](CCN1CCCCC1)c1ccc(-c2ccccc2)cc1
103 nM | 0.9 nM | – | – | – | – | CC(CCN1CCCCC1)c1ccc(-c2ccccc2)cc1 (racemic)
1500 nM | 1900 nM | – | – | – | – | COc1ccc2cc(C3(O)CCN(C)C3C)ccc2c1 (configuration not stated)
651 nM | 205 nM | – | – | – | – | CN(C)CC[C@@](C)(O)c1ccc2ccccc2c1
34.6 nM | 6.57 nM | – | inactive | Active | – | CC(O)(CCN1CCCCC1)c1ccc(-c2ccccc2)cc1 (racemic)
1200 nM | 1500 nM | – | – | – | – | COc1ccc2cc([C@@]3(O)CCN(C)[C@@H]3C)ccc2c1
1800 nM | 4.7 nM | – | inactive | Active | 382 | C[C@](O)(CCN1CCCCC1)c1ccc(-c2ccccc2)cc1
75 nM | 63 nM | – | – | – | – | CN(C)CC[C@](C)(O)c1ccc2ccccc2c1
97 nM | 41 nM | – | – | – | – | COc1ccc2cc(C(C)(O)CCN(C)C)ccc2c1 (racemic)

More lines, now with the values behind:

Compound | Ki [1] | Ki [2] | Activity [3] | Activity [4] | Activity [5] | Ratio Ki [6]
COc1ccc2cc([C@@](C)(O)CCN(C)C)ccc2c1 | 1100 nM | 25 nM | – | – | – | –
C[C@@](O)(CCN1CCCCC1)c1ccc(-c2ccccc2)cc1 | 4300 nM | 39 nM | inactive | – | – | –
C[C@H]1N(C)CC[C@]1(O)c1ccc2ccccc2c1 | 94 nM | 86 nM | – | – | – | –
CC1N(C)CCC1(O)c1ccc2ccccc2c1 (racemic) | 366 nM | 65 nM | – | – | – | –
CN(C)CCC(C)(O)c1ccc2ccccc2c1 (racemic) | 66 nM | 77 nM | – | – | – | –
COc1ccc2cc([C@]3(O)CCN(C)[C@H]3C)ccc2c1 | 1900 nM | 1200 nM | – | – | – | –
COc1ccc2cc([C@](C)(O)CCN(C)C)ccc2c1 | 133 nM | 51 nM | – | – | – | –
C[C@@H]1N(C)CC[C@@]1(O)c1ccc2ccccc2c1 | 432 nM | 26 nM | – | – | – | –
